Columns and labels:
Test in all cases: Proliferation of insulin-specific NOD T cell clone
Format in all cases: cell-based, mouse
Conditions in all cases: 50 μg/ml peptide, 72 hours
T cell clone PD12-2.40 = system: T cell clone PD12-2.40
Protocol: (§1) Insulin specific NOD T cell lines were established by culturing lymphocytes isolated from islet-infiltrating populations by in vitro stimulation with either porcine insulin at 25 μg/ml and irradiated NOD islet cells in the presence of irradiated NOD spleen cells as antigen presenting cells and cytokines. To obtain the infiltrating lymphocytes the following procedures were performed (see WeLimann et al., Eur. J. Immunol. 24:1853, 1994): the pancreas from the NOD mouse was digested with collatenase and individual islets were isolated manually. The infiltrating lymphocytes were then obtained by mild trypsin digestion of the islets. The insulin specific T cell lines or clones were propagated by serial stimulation in the presence of NOD spleen cells, porcine insulin and lymphokines. Clones were obtained by limiting dilution of the B chain (9-23) specific T cell lines in the presence of the antigen presenting cells and porcine insulin at 25 μg/ml. Wells with a growing population of cells following limiting dilution were expanded in appropriate medium, and after one cycle of growth were tested for reactivity to the B chain (9-23) peptide of insulin by evaluating the proliferative response.
(§2) Insulin B chain (9-23) (SEQ ID NO:2) specific mouse (NOD) T cell clones were isolated from infiltrated islets as described in Example 2. Peptide analogues with single alanine substitutions were prepared as described in Example 1. The effect of each analogue on T cell prolircration was then evaluated using an assay performed in 96-well flat bottom microtiter plates (see Daniel et al., Eur. J. Immunol. 25 :1056, 1995). Briefly 25,000 T cell clones along with 1 million irradiated NOD spleen cells were cultured in the presence of 50 μg/ml of insulin B chain 9-23 peptide or any of the alanine substituted peptides listed below in triplicate sets. The plates were incubated for a total of 72 hours in 7% carbon dioxide atmosphere with a pulse of 1 μCi/well of tritiated thymidine for the last 6-8 hours of culture. Cells were harvested on a glass fiber filter and the associated radioactivity was counted in a liquid scintillation counter. Results are expressed as mean counts per minute of triplicate wells.
NOD T cell clones were incubated in the presence of 50 μM of either the native B chain (9-23) peptide or NBI-6024. The data in Table 3 represent the mean of triplicate sample±standard error of the mean. Within Table 3, S.I. (Stimulation Index)=proliferation (cpm) in the presence of the peptide/proliferation (cpm) in medium alone.

T cell clone PD12-4.29 = system: T cell clone PD12-4.29
Protocol: as §1, §2

T cell clone PD12-4.34 = system: T cell clone PD12-4.34
Protocol: as §1, §2

T cell clone PD12-4.4 = system: T cell clone PD12-4.4
Protocol: as §1, §2

T cell clone PD6-4.3 = system: T cell clone PD6-4.3
Protocol: as §1, §2

**Q.** With “Modified Position 10: insulin B chain (9-23) peptide analogue with native residue H at position 10 substituted with alanine” as the substance, how does the “Response (cpm)” value (T cell clone PD12-2.40) read?
**A.** 1409 cpm

**Q.** What about the “Response (cpm)” value (T cell clone PD12-4.29) of the same substance?
**A.** 15484 cpm

**Q.** What about the “Response (cpm)” value (T cell clone PD12-4.34) of the same substance?
**A.** 356 cpm

**Q.** And the “Response (cpm)” value (T cell clone PD12-4.4)?
**A.** 823 cpm

**Q.** What about the “Response (cpm)” value (T cell clone PD6-4.3) of the same substance?
**A.** 12507 cpm

**Q.** For “Modified Position 11: insulin B chain (9-23) peptide analogue with native residue L at position 11 substituted with alanine”, which “Response (cpm)” value (T cell clone PD12-2.40) is on record?
**A.** 2594 cpm

**Q.** And the “Response (cpm)” value (T cell clone PD12-4.29)?
**A.** 18416 cpm

**Q.** And the “Response (cpm)” value (T cell clone PD12-4.34)?
**A.** 190 cpm

**Q.** And the “Response (cpm)” value (T cell clone PD12-4.4)?
**A.** 474 cpm

**Q.** And the “Response (cpm)” value (T cell clone PD6-4.3)?
**A.** 14148 cpm

**Q.** For “Modified Position 19: insulin B chain (9-23) peptide analogue with native residue C at position 19 substituted with alanine”, which “Response (cpm)” value (T cell clone PD12-2.40) is on record?
**A.** 34212 cpm

**Q.** And the “Response (cpm)” value (T cell clone PD12-4.29)?
**A.** 6054 cpm

**Q.** And the “Response (cpm)” value (T cell clone PD12-4.34)?
**A.** 689 cpm

**Q.** And the “Response (cpm)” value (T cell clone PD12-4.4)?
**A.** 4295 cpm

**Q.** What about the “Response (cpm)” value (T cell clone PD6-4.3) of the same substance?
**A.** 7678 cpm

**Q.** Which “Response (cpm)” value (T cell clone PD12-2.40) does the source give for “Modified Position 20: insulin B chain (9-23) peptide analogue with native residue G at position 20 substituted with alanine” here?
**A.** 38685 cpm

**Q.** What about the “Response (cpm)” value (T cell clone PD12-4.29) of the same substance?
**A.** 13736 cpm

**Q.** What about the “Response (cpm)” value (T cell clone PD12-4.34) of the same substance?
**A.** 466 cpm

**Q.** What about the “Response (cpm)” value (T cell clone PD12-4.4) of the same substance?
**A.** 1323 cpm

**Q.** And the “Response (cpm)” value (T cell clone PD6-4.3)?
**A.** 2440 cpm

**Q.** “Modified Position 21: insulin B chain (9-23) peptide analogue with native residue E at position 21 substituted with alanine” was tested. Which “Response (cpm)” value (T cell clone PD12-2.40) did it give?
**A.** 39087 cpm

**Q.** What about the “Response (cpm)” value (T cell clone PD12-4.29) of the same substance?
**A.** 4904 cpm

**Q.** And the “Response (cpm)” value (T cell clone PD12-4.34)?
**A.** 773 cpm

**Q.** What about the “Response (cpm)” value (T cell clone PD12-4.4) of the same substance?
**A.** 7900 cpm

**Q.** What about the “Response (cpm)” value (T cell clone PD6-4.3) of the same substance?
**A.** 91 cpm

**Q.** Which results are given for “Modified Position 22: insulin B chain (9-23) peptide analogue with native residue R at position 22 substituted with alanine”?
**A.** Response (cpm) (T cell clone PD12-2.40): 51722 cpm; Response (cpm) (T cell clone PD12-4.29): 12635 cpm; Response (cpm) (T cell clone PD12-4.34): 1555 cpm; Response (cpm) (T cell clone PD12-4.4): 1313 cpm; Response (cpm) (T cell clone PD6-4.3): 6555 cpm

**Q.** Which results are given for “Modified Position 23: insulin B chain (9-23) peptide analogue with native residue G at position 23 substituted with alanine”?
**A.** Response (cpm) (T cell clone PD12-2.40): 75441 cpm; Response (cpm) (T cell clone PD12-4.29): 18422 cpm; Response (cpm) (T cell clone PD12-4.34): 791 cpm; Response (cpm) (T cell clone PD12-4.4): 3228 cpm; Response (cpm) (T cell clone PD6-4.3): 14304 cpm

From US6197926A, “Methods for treatment of diabetes using peptide analogues of insulin” (Neurocrine Biosciences, priority 1999, dated 2001)
